Here are results for 23 compounds from article PMC7906415, “Metabolite profile of Nectandra oppositifolia Nees & Mart. and assessment of antitrypanosomal activity of bioactive compounds through efficiency analyses” (PLoS ONE, 2021).

Like-named read-outs stand apart in the source and are kept apart here.

The subject of data set [1] is Trypanosoma cruzi intracellular amastigotes. The data set is described as follows: Activity against intracellular amastigotes of T. cruzi in infected peritoneal macrophages (EC50). The conditions noted are these: for EC50: Trypanosoma cruzi, Peritoneal macrophage, in Mus musculus, read-out: EC50 ± SD; for EC50 / EC50 ± SD: 48 h; for SI (selectivity index): ratio CC50 against NCTC cells/EC50 against amastigote forms. The data set is classed as cell-based, Trypanosoma cruzi (Y strain). On the procedure: Trypanosoma cruzi trypomastigotes (Y strain) were routinely maintained in Rhesus monkey kidney cells (LLC-MK2 –ATCC CCL 7), using RPMI-1640 medium supplemented with 2% FBS at 37°C in a 5% CO2-humidified incubator. The murine conjunctive cells (NCTC clone 929, ATCC) were maintained in RPMI-1640 medium supplemented with 10% FBS at 37°C in a 5% CO2 –humidified incubator. Peritoneal macrophages, used for the amastigote assays, were obtained by washing the peritoneal cavity of BALB/c mice with RPMI-1640 medium supplemented with 10% FBS and were kept at 37°C in a 5% CO2-humidified incubator. To evaluate the activity against intracellular amastigotes, the peritoneal macrophages obtained from BALB/c mice were infected with trypomastigotes forms of T. cruzi. The macrophages were plated on a 16-well chamber slide (NUNC plate, Merck; 1 x 10^5/well) and incubated for 24 h at 37°C in a 5% CO2-humidified incubator. […] After 2 h of incubation at 37°C in a 5% CO2-humidified incubator, the non-internalized parasites were removed by washing with RPMI-1640 medium. Compounds 1–12 and 7a-7e were incubated by serial dilution (100–1.56 μM) with the infected macrophages (48 h at 37°C, 5% CO2) using benznidazole as the standard drug. At the end of the assay, slides were fixed with MeOH and stained with Giemsa prior to counting under a light microscope (EVOS M5000, THERMO). The EC50 values were calculated as previously described. EC50 and CC50 data represent the mean of two independent representative assays tested in duplicate and were calculated using sigmoid dose-response curves with Graph–Pad Prism 6.0 software (San Diego, CA, USA).

Data set [2] can be described thus: Cytotoxicity against mammalian cells, MTT assay (CC50). In kind it is cell-based, murine. The conditions noted are these: mouse. On the procedure:
Trypanosoma cruzi trypomastigotes (Y strain) were routinely maintained in Rhesus monkey kidney cells (LLC-MK2 –ATCC CCL 7), using RPMI-1640 medium supplemented with 2% FBS at 37°C in a 5% CO2-humidified incubator. The murine conjunctive cells (NCTC clone 929, ATCC) were maintained in RPMI-1640 medium supplemented with 10% FBS at 37°C in a 5% CO2 –humidified incubator. Peritoneal macrophages, used for the amastigote assays, were obtained by washing the peritoneal cavity of BALB/c mice with RPMI-1640 medium supplemented with 10% FBS and were kept at 37°C in a 5% CO2-humidified incubator.
The cytotoxicity assays were performed using NCTC cells-clone 929. The cells were counted, seeded (6 x 10^4 cells/well), and incubated with compounds 1–12 and 7a- 7e (200–1.56 μM—serial dilution) for 48 h at 37°C in a 5% CO2-humidified incubator. The optical density was determined using a FilterMax F5 (Molecular Devices) at 570 nm. The 50% cytotoxic concentration (CC50) values were determined by MTT assay. Selectivity index (SI) values were calculated using the ratio: CC50 against NCTC cells/EC50 against parasites form (amastigotes).
EC50 and CC50 data represent the mean of two independent representative assays tested in duplicate and were calculated using sigmoid dose-response curves with Graph–Pad Prism 6.0 software (San Diego, CA, USA).

For the next data set, the system named is T. cruzi amastigotes. Particulars: cited from earlier work.
In the next data set the test system is mammalian cells. The arrangement: method as in PMID 31132603. The conditions noted are these: cytotoxicity, previous work; cited from earlier work.
The mark [3] stands for this setting: NCTC clone 929 cells, 48 h, MTT, 200–1.56 μM, read-out: CC50.
[4] abbreviates: intracellular amastigote forms of T. cruzi in BALB/c peritoneal macrophages, 100–1.56 μM.

Take `CC1=CC(=O)CC(C)(C)[C@@]1(O)/C=C/C(C)=C\C(=O)O` [Compound 3, (+)-(S)-abscisic acid]: the EC50 in data set [1] is above 100 µM. Further, the CC50 at 48 h in data set [2] (setting [3]) is above 200 µM.
Turning to `O=C(O)CCCCCCCC(=O)O` [Compound 5, azelaic acid], the EC50 in data set [1] (setting [4]) was above 100 µM. Further, the CC50 at 48 h in data set [2] (setting [3]) is above 200 µM.
Regarding `COc1cc([C@H]2O[C@@H](c3ccc(O)c(OC)c3)[C@H](C)[C@@H]2C)ccc1O` [Compound 12, nectandrin B], in data set [1] (setting [4]), the EC50 came out at 31 ± 0.3 µM. In data set [1], the “SI (selectivity index)” value is above 6.4. The CC50 at 48 h in data set [2] (setting [3]) was above 200 µM.
Consider `CCCCCCOC(=O)c1ccc(O)c(O)c1` [Compound 7e], for which the EC50 in data set [1] (setting [4]) turned out to be 11.7 ± 2.7 µM. Also, in data set [1], the “SI (selectivity index)” value is given as above 17.1. Further, the CC50 at 48 h in data set [2] (setting [3]) was above 200 µM.
On to `O=Cc1c[nH]c2ccccc12` [Compound 2, indole-3-aldehyde], for which, in data set [1] (setting [4]), the EC50 was above 100 µM. In data set [2], this compound came in with a CC50 at 48 h above 200 µM.
With Isolinderanolide D, the EC50 with T. cruzi amastigotes (amastigote forms of T. cruzi) is 25.3 µM.
Regarding `COc1cc(C(=O)[C@H](CO)c2ccc(O)c(OC)c2)ccc1O` [Compound 9, (-)-evofolin B], the EC50 in data set [1] (setting [4]) was 27.8 ± 0.2 µM. Also, the “SI (selectivity index)” value in data set [1] is above 7.2. For the same compound, the CC50 at 48 h in data set [2] (setting [3]) was above 200 µM.
`C=C1OC(=O)/C(=C\CCCCCCCCCCCCCCC)[C@H]1O` [isolinderanolide E]: the EC50 in the data set with T. cruzi amastigotes (amastigote forms of T. cruzi) is 10.1 µM.
For `COc1cc(C2OC(c3ccc(O)c(OC)c3)C(C)C2C)ccc1O` (stereo not drawn) [Compound 11, verrucosin], the EC50 in data set [1] (setting [4]) turned out to be 36.8 ± 4.9 µM. The “SI (selectivity index)” value in data set [1] is above 5.4. For the same compound, the CC50 at 48 h in data set [2] (setting [3]) was above 200 µM.
As to `COc1cc(/C=C/C(=O)NCCc2ccc(O)cc2)ccc1O` [Compound 10, moupinamide], the EC50 in data set [1] (setting [4]) was above 100 µM. Besides, in data set [2] (setting [3]), the CC50 at 48 h was above 200 µM.
Consider `CCCCCCCCOC(=O)c1ccc(O)c(OC)c1` [n-octyl ester of vanillic acid], for which the EC50 in the data set on T. cruzi amastigotes (T. cruzi amastigotes) is 6.8 µM.
With `CCCCCOC(=O)c1ccc(O)c(O)c1` [Compound 7d], in data set [1] (setting [4]), the EC50 turned out to be 12.3 ± 3.8 µM. Further, in data set [1], the “SI (selectivity index)” value was above 16.3. Moreover, in data set [2] (setting [3]), the CC50 at 48 h was above 200 µM.
In the case of `COC(=O)c1ccc(O)c(O)c1` [Compound 7a], in data set [1] (setting [4]), the EC50 was above 100 µM and the “EC50 ± SD” value is “inactive”. In data set [2] (setting [3]), the CC50 at 48 h is above 200 µM.
Turning to `CC1(C)CC(O)CC(C)(O)/C1=C\C(=O)O` (stereo not drawn) [Compound 4, 2Z-(2,4-dihydroxy-2,6,6-trimethylcyclohexylidene)acetic acid], in data set [1] (setting [4]), the EC50 turned out to be 28.2 ± 2.9 µM. Moreover, in data set [1], the “SI (selectivity index)” value was above 7.1. This compound had a CC50 at 48 h in data set [2] above 200 µM.
For the compound `CCCOC(=O)c1ccc(O)c(O)c1` [Compound 7b], in data set [1] (setting [4]), the concentration for a half-maximal effect (EC50) was determined as 20.4 ± 4.2 µM. Further, the “SI (selectivity index)” value in data set [1] is recorded as above 9.8. In data set [2] (setting [3]), the CC50 at 48 h is above 200 µM.
Consider `CCCCCCCCOC(=O)c1ccc(O)c(O)c1` [n-octyl ester of protocatechuic acid], for which, in the data set with mammalian cells, the cytotoxic concentration (CC50) was 108 µM. Besides, in the data set on T. cruzi amastigotes (T. cruzi amastigotes), the EC50 is 13.9 µM.
In the case of `O=C(O)c1ccc(O)c(O)c1` [protocatechuic acid, reference compound], the EC50 in data set [1] is above 100 µM. Besides, in data set [1] (setting [4]), the “EC50 ± SD” value was “inactive”. Also, in data set [2] (setting [3]), the CC50 at 48 h was above 200 µM.
In the case of `CCOC(=O)C1CCC(=O)N1` (stereo in doubt) [Compound 1, ethyl (R)-pyroglutamate], in data set [1] (setting [4]), the EC50 was above 100 µM. In data set [2] (setting [3]), the CC50 at 48 h is above 200 µM.
For the compound `COc1cc2ccc(=O)oc2cc1O` [Compound 8, scopoletin], the EC50 in data set [1] (setting [4]) was above 100 µM. Further, the CC50 at 48 h in data set [2] (setting [3]) is above 200 µM.
For the compound `CCOC(=O)c1ccc(O)c(O)c1` [Compound 7, ethyl protocatechuate], in data set [1] (setting [4]), the EC50 amounted to 18.1 ± 0.3 µM. Further, in data set [2] (setting [3]), the CC50 at 48 h is above 200 µM.
As to `CCCCOC(=O)c1ccc(O)c(O)c1` [Compound 7c], in data set [1] (setting [4]), the EC50 came to 19.4 ± 6.3 µM. The “SI (selectivity index)” value in data set [1] is above 10.3. In data set [2] (setting [3]), the CC50 at 48 h was above 200 µM.
For the compound `COc1cc(C(=O)O)ccc1O` [Compound 6, vanillic acid], the EC50 in data set [1] (setting [4]) was above 100 µM. Moreover, the CC50 at 48 h in data set [2] (setting [3]) was above 200 µM.
As to `O=C(Cn1ccnc1[N+](=O)[O-])NCc1ccccc1` [Benznidazole, benznidazole, reference compound], in data set [1] (setting [4]), the EC50 was 18.7 ± 4.1 µM. Besides, in data set [1], the “SI (selectivity index)” value was above 10.7. Besides, the CC50 at 48 h in data set [2] (setting [3]) is above 200 µM.
